This is an account of results in patent publication US20250095772A1, “METHOD FOR IMPROVING THROUGHPUT OF COMPOUND-PROTEIN INTERACTION EXPERIMENTS” (SOUTHERN UNIVERSITY OF SCIENCE AND TECHNOLOGY, priority 2022, published 2025).

Assay [1] has as its system K562 cell lysate. Description: Single temperature point TPP target identification, 15 drugs pooled into 9 mixture systems (Example 1). As to conditions: 15 compounds in 9 mixture systems (each in 3), each drug 40 μM, heated at 52° C. for 3 minutes, LASSO β threshold 0.1, — = no target identified. In kind it is binding. From the text:
In step S01: Fifteen drugs to be tested (i.e., the compounds to be tested) were given: Palbociclib, Panobinostat, Raltitrexed, Methotrexate, Vemurafenib, Fimepinostat, SCIO-469, SL-327, 5-Fluorouracil, Olaparib, Belumosudil, OTS964, Parthenolide, CCT137690, […], which are sequentially numbered as compound to be tested 1, compound to be tested 2, compound to be tested 3, . . . and compound to be tested 15. It is assumed here that the above fifteen compounds to be tested are mixed into nine mixture systems: mixture system 1, mixture system 2, mixture system 3, . . . and mixture system 9, and each compound to be tested was included in three different mixture systems, that is, m=9, n=15, a=3. The nine mixture systems are mapped into a 9x15 initial permutation matrix A of the compounds to be tested, and the initial permutation matrix A is randomly initialized so that the numerical values in the matrix A are random floating-point numbers between 0 and 1.
The initial permutation matrix A of the compounds to be tested was iteratively optimized through a genetic algorithm to minimize the value of the objective function L; the permutation matrix A is subjected to the binary conversion in step S02 when the value of the objective function L is the minimum to obtain the optimized permutation matrix S (as shown in FIG. 3), the optimized permutation matrix S is the final permutation matrix. […] In FIGS. 2 and 3, the black grid represents the numerical value 1, and the white grid represents the numerical value 0. During the iteration process, the value of the objective function L decreases to a constant value as the number of iterations increases, as shown in FIG. 4. The fifteen compounds to be tested were mixed according to the finally-obtained 9×15 optimized permutation matrix shown in FIG. 3, and nine mixture systems were obtained.
(§1) In step S04: DMSO as a solvent was added to each mixture system in step S03 to enable a concentration of each drug to reach 40 μM, and then the single temperature point TPP method is applied to measure the interaction between each mixture system and the protein. The specific experimental steps are that: equal amounts of K562 cell lysate were mixed with a drug mixture system, incubated at room temperature for 10 minutes, then heated at 52° C. for 3 minutes, and then quickly cooled to 4° C. on a PCR machine. The samples were centrifuged at 21,000 rcf for 20 minutes at 4° C., and the supernatant was collected. According to the mass spectrometry-based proteomics quantification method, each sample was enzymatically digested and TMT labeled, and then the LC-MS mass spectrometry was used for measurement to obtain the content of protein. Based on the principle of the TPP method, the thermal stability of the protein can be improved through a combination with compounds. Therefore, if a protein can interact with the mixed system, then the content of protein measured by mass spectrometry will be higher, and vice versa.
(§2) In step S05: Nine measured values Yi obtained from the interaction between the nine mixture systems and the target protein are marked as response vectors Y; the response vectors Y were normalized so that the numerical values of the response vectors are between 0 and 1. The response vector Y and the permutation matrix S meet a relational expression of:
Where, Yi represents a response value of the ability of the mixture system identified as i among the nine mixture systems to interact with the target protein, and βj is a contribution of the compound to be tested identified as j in the mixture system identified as i to the response value of the mixture system identified as i, βj is a coefficient vector with a length n, and R is a residual vector with a length […].
the LASSO regression method is applied to obtain an optimal solution of β based on the following expression: […]

Assay [2] relates to K562 cell lysate. Nature of the assay: Single temperature point TPP target identification, 25 drugs pooled into 14 mixture systems (Example 2). The settings on record: 25 compounds in 14 mixture systems (each in 4), remaining steps as Example 1 (40 μM, K562 cell lysate, 52° C., LASSO β threshold 0.1); — = no target identified. Format: binding. The protocol:
as §1, with “Based on the principle of the TPP method, the thermal stability of the protein can be improved through a combination with compounds.” left out
as §2
Where, λ is a penalty term, which is used to adjust a compression degree of β, in this embodiment, the value of λ is 0.1 and the threshold is 0.1.
It is assumed that the above twenty-five compounds to be tested are mixed into fourteen mixture systems: mixture system 1, mixture system 2, mixture system 3, . . . and mixture system 14. Each compound to be tested was included in four different mixture systems. That is, m=14, n=25, a=4. […] In FIG. 5, the black grid represents the numerical value of 1, and the white grid represents the numerical value of 0. […] The twenty-five compounds to be tested were mixed according to the finally obtained 14×25 optimized permutation matrix S shown in FIG. 5, to obtain fourteen mixture systems.

For the molecule `CN(Cc1cnc2nc(N)nc(N)c2n1)c1ccc(C(=O)N[C@@H](CCC(=O)O)C(=O)O)cc1` [Methotrexate], the “Successfully Identified Target(s)” value with K562 cell lysate [1] and in the assay with K562 cell lysate [2] was “DHFR” in each case. Regarding `COc1ccc(-c2nc(N3CCOCC3)c3sc(CN(C)c4ncc(C(=O)NO)cn4)cc3n2)cn1` [Fimepinostat], the “Successfully Identified Target(s)” value in the assay on K562 cell lysate [1] and with K562 cell lysate [2] was “HDAC1” throughout. For `Cc1nc2ccc(CN(C)c3ccc(C(=O)N[C@@H](CCC(=O)O)C(=O)O)s3)cc2c(=O)[nH]1` [Raltitrexed], the “Successfully Identified Target(s)” value in the assay with K562 cell lysate [1] and in the assay on K562 cell lysate [2] was “TYMS” each time. With `C[C@@H]1CN(Cc2ccc(F)cc2)[C@@H](C)CN1C(=O)c1cc2c(C(=O)C(=O)N(C)C)cn(C)c2cc1Cl` [SCIO-469], the “Successfully Identified Target(s)” value in the assay on K562 cell lysate [1] and with K562 cell lysate [2] was “MAPK14” in each case.

With `O=C(c1cc(Cc2n[nH]c(=O)c3ccccc23)ccc1F)N1CCN(C(=O)C2CC2)CC1` [Olaparib], the “Successfully Identified Target(s)” value in the assay on K562 cell lysate [1] and in the assay with K562 cell lysate [2] was “PARP1” each time.

For `COC(=O)N[C@@H](C)CNc1nccc(-c2cn(C(C)C)nc2-c2cc(Cl)cc(NS(C)(=O)=O)c2F)n1` [Encorafenib], the “Successfully Identified Target(s)” value in the assay on K562 cell lysate [2] is listed as “BRAF”. Regarding `Cc1cc(CN2CCN(c3c(Br)cnc4nc(-c5ccc(N6CCN(C)CC6)cc5)[nH]c34)CC2)no1` [CCT137690], the “Successfully Identified Target(s)” value in the assay on K562 cell lysate [1] was “AURKA”. With `CC(C)(C)Cn1c(N)nc2ccc(-c3[nH]c(C(C)(C)C)nc3-c3ccc(F)cc3)nc21` [Ralimetinib], the “Successfully Identified Target(s)” value in the assay with K562 cell lysate [1] and in the assay with K562 cell lysate [2] was “MAPK14” each time.
